Data from patent publication US10226478B2, “Dosage regimen for sapacitabine and decitabine in combination for treating acute myeloid leukemia” (Cyclacel Limited, priority 2011, dated 2019).
Like-named read-outs stand apart in the source and are kept apart here.

Key:
[1] = test system: HL60 cells; experiment: 72 h single agent cytotoxicity, alamar blue assay; format: cell-based; conditions: Homo sapiens
Experimental: (§1) In order to complete the combination studies, the cytotoxic effects of individual compounds were determined.
(§2) A dilution series for each drug was prepared in medium. Two hours after seeding, an equal volume of each compound was added at twice the desired concentration and incubated for 72 hours. All treatments were performed in triplicate. At the end of the incubation, a 20% stock of alamar blue (Roche, Lewes, UK) was prepared in media, and an equal volume was added to each well and incubated for three hours. Absorbance was read at 544-595 nm and data was analysed (Excel Fit v4.0) to determine the IC50 (concentration of compound that inhibited cell growth by 50%) for each compound.

[2] = test system: MV4-11 cells; experiment: 72 h single agent cytotoxicity, alamar blue assay; format: cell-based; conditions: Homo sapiens
Experimental: as §1, §2

[3] = test system: HL60 cells; experiment: Annexin V staining (apoptosis, flow cytometry); conditions: single agents, azacitidine 72 and 96 hours, CNDAC 48 or 72 hours
Experimental: Single agent treatments were also performed as controls. After incubation cells were centrifuged at 500 g for 5 min, washed twice in PBS and once in annexin buffer (10 mM Hepes pH 7.4, 2.5 mM CaCl2, and 140 mM NaCl). Cells were resuspended at 1×10^6/ml and 100 μl was transferred to a 5 ml tube prior to incubation for 10 min in the dark at room temperature with 5 μl of annexin V-FITC stain (Beckton Dickinson) and 10 μl of propidium iodide [50 mg/ml]. Annexin buffer (1 ml) was added and the cells were analysed by flow cytometry. Annexin V positive cells (apoptotic) were designated on the basis of green fluorescence and propidium iodide (dead) positive cells were designated on the basis of red fluorescence.

[4] = test system: cell line that is resistant to cytarabine; conditions: cited from earlier work

N#C[C@H]1[C@H](O)[C@@H](CO)O[C@H]1n1ccc(N)nc1=O [CNDAC, 1-(2-C-Cyano-2-deoxy-β-D-arabino-pentafuranosyl)-cytosine]
IC50 ([1]; HL-60, HL60 cells, 72 hour, read-out: 1×IC50): 133 nM | IC50 ([1]; HL-60 cells, read-out: IC50): 130 nM | IC50 [2]: 460 nM | annexin V, proportion of apoptotic cells [3]: little effect

Nc1ncn([C@@H]2O[C@H](CO)[C@@H](O)[C@H]2O)c(=O)n1 [azacitidine, 4-amino-1-β-D-ribofuranosyl-s-triazin-2(1H)-one]
IC50 ([1]; HL-60, HL60 cells, 72 hour, half of the IC50, read-out: 0.5×IC50): 128 nM | IC50 ([1]; HL-60 cells, half of the IC50, read-out: 0.5×IC50): 130 nM | annexin V, proportion of apoptotic cells [3]: small increase in the proportion of apoptotic cells

Nc1ccn([C@@H]2O[C@H](CO)[C@@H](O)[C@@H]2O)c(=O)n1 [cytarabine]
IC50 ([4]; after 5-azacitidine (upregulation of dCK)): 550 nM | IC50 ([4]; before 5-azacitidine): 12500 nM
